Marks after values point to notes of the source that are not given here.
How the values were obtained:
Type in all cases: in vivo, mouse
[1] = test system: serum cytokines; assay: Serum pro-inflammatory cytokines in LPS-treated mice (ELISA); details: LPS-treated mice of Table 5
Procedure: Quantification of pro-inflammatory cytokines in blood: The cytokines TNF-α, IL-1β, IL-6, IFN-γ and IL-12 were quantified in serum using ELISA techniques. Blood was collected from the inner canthus of the eye under anesthesia and serum saved at −20° C. until use. The ELISA kits were from R&D System and the results were expressed in pg/ml serum.

[2] = test system: Stat1; assay: Activated Stat1 in kidney and lung lysates of LPS-treated mice (immunoblot); details: LPS-treated mice of Table 5
From the text: In order to more definitively determine if LPS-induced IFN-β signaling and LPS-induced increases in IRF-1 and IP-10 in vivo might be attenuated by an effect of C10 treatment on Stat1 activation, protein phosphorylation levels of Stat1 in whole tissue lysates were examined in mice from Table 5. […] In contrast neither LPS nor C10 had any effect on total Stat1 in these tissues (FIG. 8, bottom blots). […] Based on literature studies described in immune cells and results we have described in nonimmune cells (FIGS. 4-6; Tables 2, 3), it is reasonable to state that C10 blocks Stat1/IRF-1 signals in vivo as well as in vitro, this is important in the therapy of toxic shock where these genes are not only involved but critical to disease expression. C10 therapy is thus important in reducing pathologic changes in multiple tissues whose organ failure is known to contribute to the signs and symptoms of toxic shock.
Immunoblot analysis of RAW 264.7 and mouse tissues: Nuclear and cytoplasmic extracts for RAW cells were prepared using NE-PER® extraction reagents (Pierce, Rockford, Ill.) in the presence of a protease inhibitor mixture (PMSF, leupeptin, and pepstatin A). […] Binding of HRP-conjugated goat anti-rabbit Ab (sc-2054; Santa Cruz Biotechnology, Inc., Santa Cruz, Calif.) was detected using the ECLplus Western Blotting Detection System (Amersham Biosciences, Piscataway, N.J.).

[3] = test system: ApoE−/− mice; assay: Atherosclerosis in ApoE−/− mice fed a high fat diet; parameters: key to CORONARY AND MYOCARDIAL VESSELS INFLAMMATION / AORTIC INFLAMMATION: ++++ for severe; + for very mild
Procedure: C10 reduced vascular inflammation in ApoE−/− mice fed a high fat diet: C10 was given i.p. (1 mg/kg) every other day to mice for 8 weeks. Control mice received DMSO alone. Mice were sacrificed at 8 weeks and histopathology examined in different tissues as determined by hematoxylin and eosin staining. In FIG. 15, sections from the base of the aorta in C10 treated (FIG. 15, Panel A) and untreated mice (FIG. 15, Panel B) are presented as well as sections of the coronary artery vasculature in C10 treated (FIG. 15, Panel C) and untreated mice (FIG. 15, Panel D). Vessels in the myocardium were also compared in C10 treated and untreated mice. […] Similarly in Panel D, the picture is representative of long sections of the coronary arteries that were nearly fully occluded with plaque in untreated mice whereas in C10 treated mice (Panel C), coronary arteries were largely unobstructed. Further, even where lesions were evident the lumens of vessels remained patent. Vessels within the myocardium were obstructed by plaque in the absence of C10 but patent and nearly free of plaque in the mice treated with C10. Data are representative of multiple slides taken from multiple animals.
Sections of the coronary arteries and myocardium as well as the base of the aorta were compared in untreated mice vs. C10 treated mice both for extent of lesion, quality of lesion, overexpressed TLR4, overexpressed VCAM-1, and extent of inflammation and plaque. Lesions and observations were qualitatively evaluated using ++++ for severe to + for very mild. […] Evaluation was double blinded.
Experimental animals: Twenty female Apo E−/− mice (Jackson Laboratory), 5 weeks old and weighing 14.5 g (average weight), were divided in 4 groups: (1) animals treated with 10% DMSO; (2) animals treated orally with C-10 in DMSO (1 mg/kg body weight); (3) animals treated I/P with C-10 in DMSO (same dose); and (4) control animals without treatment.
The treatment was done every other day (8 week expt) or every day. The animals were fed on a Western-type diet (TD 88137 from Harlan, Teklan). […]

[4] = C10 1 mg/kg every other day for 8 weeks

## Cn1c(-c2ccccc2)cnc1S [Compound C10, 5-Phenylmethimazole]
[1]
  serum cytokine levels (IL-1β, IL-6, TNF-α, IFN-γ, IL-12) by ELISA: reduced these cytokine levels to levels in normal control mice
[2]
  activated (phosphorylated) Stat1 protein levels in kidney and lung: reduced to basal
[3]; [4]
  AORTIC INFLAMMATION: +*
  CORONARY AND MYOCARDIAL VESSELS INFLAMMATION: +*
[3]; C10 orally and ip, 4 weeks
  weight gain: decreased

From patent US9326972B2, “Use of phenylmethimazoles, methimazole derivatives, and tautomeric cyclic thiones for the treatment of autoimmune/inflammatory diseases associated with toll-like receptor overexpression” (Ohio University, priority 2004, dated 2016)
